Measurements as given in ChEMBL document CHEMBL1159136, “Dipeptide mimetics can substitute for the receptor activation domain resulting in highly potent analogues of hPTH(136)” (Bioorg Med Chem Lett, 1996).
Peptide text beside a SMILES is read from it. * marks the point of attachment. X6 = CC(=O)N(C(=O)[C@H](C)N)[C@H](C(=O)*)C(C)C; X8 = C[C@H](N)/C(F)=C/[C@@H](Cc1ccccc1)C(=O)*; X1 = CC(C)[C@H](/C=C(\Cl)[C@H](C)N)C(=O)*; X2 = CC(C)[C@H](/C=C(\F)[C@H](C)N)C(=O)*; X3 = C/C(=C\[C@H](C(=O)*)C(C)C)[C@H](C)N; X7 = C[C@H](/C=C(\Cl)[C@H](C)N)C(=O)*

How the values were obtained:
OK-1 [1] = test: Accumulation of cyclic AMP in OK-1 cells.; assay type: functional, cell-based, opossum; settings: opossum, OK-1
OK-1 [2] = test: Compound was evaluated for the intrinsic activity for accumulation of cyclic AMP in OK-1 cells.; assay type: functional, opossum
OK-1 [3] = test: Displacement of [125I]-chick PTHrP-(1-36)-NH2 from opossum (OK-1) kidney cells; assay type: functional
SAOS-2 [4] = test: Compound was evaluated for the accumulation of cyclic AMP in SaOS-2 (human osteosarcoma) cells.; assay type: functional, cell-based; settings: Homo sapiens, SAOS-2
SAOS-2 [5] = test: Compound was evaluated for the intrinsic activity for accumulation of cyclic AMP in SaOS-2 (human osteosarcoma) cells.; assay type: functional
UMR106-06 [6] = test: Compound was evaluated for the intrinsic activity for accumulation of cyclic AMP in UMR10606 (rat osteosarcoma) cells.; assay type: functional
UMR106-06 [7] = test: Compound was evaluated for the accumulation of cyclic AMP in UMR10606 (rat osteosarcoma) cells.; assay type: functional, cell-based

Row | Structure (SMILES) | EC50 (OK-1 [1]) [nM] | Intrinsic activity (OK-1 [2]) | pKD (OK-1 [3]) | EC50 (SAOS-2 [4]) [nM] | Intrinsic activity (SAOS-2 [5]) | Intrinsic activity (UMR106-06 [6]) | EC50 (UMR106-06 [7]; Rattus norvegicus, UMR106-06) [nM] | EC50 (UMR106-06 [7]; umr106-06) [nM]
1 | CC[C@H](C)[C@H](NC(=O)[C@H](CCC(=O)O)NC(=O)[C@H](CO)NC(=O)[C@@H](/C=C(\F)[C@H](C)N)C(C)C)C(=O)N[C@@H](CCC(N)=O)C(=O)N[C@@H](CC(C)C)C(=O)N[C@@H](CCSC)C(=O)N[C@@H](Cc1c[nH]cn1)C(=O)N[C@@H](CC(N)=O)C(=O)N[C@@H](CC(C)C)C(=O)NCC(=O)N[C@@H](CCCCN)C(=O)N[C@@H](Cc1c[nH]cn1)C(=O)N[C@@H](CC(C)C)C(=O)N[C@@H](CC(N)=O)C(=O)N[C@@H](CO)C(=O)N[C@@H](CCSC)C(=O)N[C@@H](CCC(=O)O)C(=O)N[C@@H](CCCN=C(N)N)C(=O)N[C@H](C(=O)N[C@@H](CCC(=O)O)C(=O)N[C@@H](Cc1c[nH]c2ccccc12)C(=O)N[C@@H](CC(C)C)C(=O)N[C@@H](CCCN=C(N)N)C(=O)N[C@@H](CCCCN)C(=O)N[C@@H](CCCCN)C(=O)N[C@@H](CC(C)C)C(=O)N[C@@H](CCC(N)=O)C(=O)N[C@@H](CC(=O)O)C(=O)N[C@H](C(=O)N[C@@H](Cc1c[nH]cn1)C(=O)N[C@@H](CC(N)=O)C(=O)N[C@@H](Cc1ccccc1)C(=O)N[C@H](C(=O)N[C@@H](C)C(N)=O)C(C)C)C(C)C)C(C)C (X2-SEIQLMHNLGKHLNSMERVEWLRKKLQDVHNFVA-NH2) | 4.4 | 1 | 8.9 | 1.5 | 0.89 | 1 | 1.6 | 
2 | CC[C@H](C)[C@H](NC(=O)[C@H](CCC(=O)O)NC(=O)[C@H](CO)NC(=O)[C@@H](/C=C(\Cl)[C@H](C)N)C(C)C)C(=O)N[C@@H](CCC(N)=O)C(=O)N[C@@H](CC(C)C)C(=O)N[C@@H](CCSC)C(=O)N[C@@H](Cc1c[nH]cn1)C(=O)N[C@@H](CC(N)=O)C(=O)N[C@@H](CC(C)C)C(=O)NCC(=O)N[C@@H](CCCCN)C(=O)N[C@@H](Cc1c[nH]cn1)C(=O)N[C@@H](CC(C)C)C(=O)N[C@@H](CC(N)=O)C(=O)N[C@@H](CO)C(=O)N[C@@H](CCSC)C(=O)N[C@@H](CCC(=O)O)C(=O)N[C@@H](CCCN=C(N)N)C(=O)N[C@H](C(=O)N[C@@H](CCC(=O)O)C(=O)N[C@@H](Cc1c[nH]c2ccccc12)C(=O)N[C@@H](CC(C)C)C(=O)N[C@@H](CCCN=C(N)N)C(=O)N[C@@H](CCCCN)C(=O)N[C@@H](CCCCN)C(=O)N[C@@H](CC(C)C)C(=O)N[C@@H](CCC(N)=O)C(=O)N[C@@H](CC(=O)O)C(=O)N[C@H](C(=O)N[C@@H](Cc1c[nH]cn1)C(=O)N[C@@H](CC(N)=O)C(=O)N[C@@H](Cc1ccccc1)C(=O)N[C@H](C(=O)N[C@@H](C)C(N)=O)C(C)C)C(C)C)C(C)C (X1-SEIQLMHNLGKHLNSMERVEWLRKKLQDVHNFVA-NH2) | 7.9 | 1.1 | 8.9 | 0.85 | 1 | 1 | 0.65 | 
3 | CC[C@H](C)[C@H](NC(=O)[C@H](CCC(=O)O)NC(=O)[C@H](CO)NC(=O)[C@@H](NC(=O)[C@H](C)N)C(C)C)C(=O)N[C@@H](CCC(N)=O)C(=O)N[C@@H](CC(C)C)C(=O)N[C@@H](CCSC)C(=O)N[C@@H](Cc1c[nH]cn1)C(=O)N[C@@H](CC(N)=O)C(=O)N[C@@H](CC(C)C)C(=O)NCC(=O)N[C@@H](CCCCN)C(=O)N[C@@H](Cc1c[nH]cn1)C(=O)N[C@@H](CC(C)C)C(=O)N[C@@H](CC(N)=O)C(=O)N[C@@H](CO)C(=O)N[C@@H](CCSC)C(=O)N[C@@H](CCC(=O)O)C(=O)N[C@@H](CCCN=C(N)N)C(=O)N[C@H](C(=O)N[C@@H](CCC(=O)O)C(=O)N[C@@H](Cc1c[nH]c2ccccc12)C(=O)N[C@@H](CC(C)C)C(=O)N[C@@H](CCCN=C(N)N)C(=O)N[C@@H](CCCCN)C(=O)N[C@@H](CCCCN)C(=O)N[C@@H](CC(C)C)C(=O)N[C@@H](CCC(N)=O)C(=O)N[C@@H](CC(=O)O)C(=O)N[C@H](C(=O)N[C@@H](Cc1c[nH]cn1)C(=O)N[C@@H](CC(N)=O)C(=O)N[C@@H](Cc1ccccc1)C(=O)N[C@H](C(=O)N[C@@H](C)C(N)=O)C(C)C)C(C)C)C(C)C (stereo in doubt; form 2) | 7 | 1 | 8.1 | 2.4 | 1 | 0.95 |  | 1
4 | CC[C@H](C)[C@H](NC(=O)[C@H](CCC(=O)O)NC(=O)[C@H](CO)NC(=O)[C@@H](/C=C(\C)[C@H](C)N)C(C)C)C(=O)N[C@@H](CCC(N)=O)C(=O)N[C@@H](CC(C)C)C(=O)N[C@@H](CCSC)C(=O)N[C@@H](Cc1c[nH]cn1)C(=O)N[C@@H](CC(N)=O)C(=O)N[C@@H](CC(C)C)C(=O)NCC(=O)N[C@@H](CCCCN)C(=O)N[C@@H](Cc1c[nH]cn1)C(=O)N[C@@H](CC(C)C)C(=O)N[C@@H](CC(N)=O)C(=O)N[C@@H](CO)C(=O)N[C@@H](CCSC)C(=O)N[C@@H](CCC(=O)O)C(=O)N[C@@H](CCCN=C(N)N)C(=O)N[C@H](C(=O)N[C@@H](CCC(=O)O)C(=O)N[C@@H](Cc1c[nH]c2ccccc12)C(=O)N[C@@H](CC(C)C)C(=O)N[C@@H](CCCN=C(N)N)C(=O)N[C@@H](CCCCN)C(=O)N[C@@H](CCCCN)C(=O)N[C@@H](CC(C)C)C(=O)N[C@@H](CCC(N)=O)C(=O)N[C@@H](CC(=O)O)C(=O)N[C@H](C(=O)N[C@@H](Cc1c[nH]cn1)C(=O)N[C@@H](CC(N)=O)C(=O)N[C@@H](Cc1ccccc1)C(=O)N[C@H](C(=O)N[C@@H](C)C(N)=O)C(C)C)C(C)C)C(C)C (X3-SEIQLMHNLGKHLNSMERVEWLRKKLQDVHNFVA-NH2) | 4.4 | 1 | 9 | 1.1 | 1 | 1 | 1.2 | 
5 | CC[C@H](C)[C@H](NC(=O)[C@H](CCC(=O)O)NC(=O)[C@H](CO)NC(=O)[C@H](C(C)C)N(C(C)=O)C(=O)[C@H](C)N)C(=O)N[C@@H](CCC(N)=O)C(=O)N[C@@H](CC(C)C)C(=O)N[C@@H](CCSC)C(=O)N[C@@H](Cc1c[nH]cn1)C(=O)N[C@@H](CC(N)=O)C(=O)N[C@@H](CC(C)C)C(=O)NCC(=O)N[C@@H](CCCCN)C(=O)N[C@@H](Cc1c[nH]cn1)C(=O)N[C@@H](CC(C)C)C(=O)N[C@@H](CC(N)=O)C(=O)N[C@@H](CO)C(=O)N[C@@H](CCSC)C(=O)N[C@@H](CCC(=O)O)C(=O)N[C@@H](CCCN=C(N)N)C(=O)N[C@H](C(=O)N[C@@H](CCC(=O)O)C(=O)N[C@@H](Cc1c[nH]c2ccccc12)C(=O)N[C@@H](CC(C)C)C(=O)N[C@@H](CCCN=C(N)N)C(=O)N[C@@H](CCCCN)C(=O)N[C@@H](CCCCN)C(=O)N[C@@H](CC(C)C)C(=O)N[C@@H](CCC(N)=O)C(=O)N[C@@H](CC(=O)O)C(=O)N[C@H](C(=O)N[C@@H](Cc1c[nH]cn1)C(=O)N[C@@H](CC(N)=O)C(=O)N[C@@H](Cc1ccccc1)C(=O)N[C@H](C(=O)N[C@@H](C)C(N)=O)C(C)C)C(C)C)C(C)C (X6-SEIQLMHNLGKHLNSMERVEWLRKKLQDVHNFVA-NH2) | 9.9 | 0.8 | 7.9 |  |  | 1 | 15 | 
6 | CC[C@H](C)[C@H](NC(=O)[C@H](CCC(=O)O)NC(=O)[C@H](CO)NC(=O)[C@H](C)/C=C(\Cl)[C@H](C)N)C(=O)N[C@@H](CCC(N)=O)C(=O)N[C@@H](CC(C)C)C(=O)N[C@@H](CCSC)C(=O)N[C@@H](Cc1c[nH]cn1)C(=O)N[C@@H](CC(N)=O)C(=O)N[C@@H](CC(C)C)C(=O)NCC(=O)N[C@@H](CCCCN)C(=O)N[C@@H](Cc1c[nH]cn1)C(=O)N[C@@H](CC(C)C)C(=O)N[C@@H](CC(N)=O)C(=O)N[C@@H](CO)C(=O)N[C@@H](CCSC)C(=O)N[C@@H](CCC(=O)O)C(=O)N[C@@H](CCCN=C(N)N)C(=O)N[C@H](C(=O)N[C@@H](CCC(=O)O)C(=O)N[C@@H](Cc1c[nH]c2ccccc12)C(=O)N[C@@H](CC(C)C)C(=O)N[C@@H](CCCN=C(N)N)C(=O)N[C@@H](CCCCN)C(=O)N[C@@H](CCCCN)C(=O)N[C@@H](CC(C)C)C(=O)N[C@@H](CCC(N)=O)C(=O)N[C@@H](CC(=O)O)C(=O)N[C@H](C(=O)N[C@@H](Cc1c[nH]cn1)C(=O)N[C@@H](CC(N)=O)C(=O)N[C@@H](Cc1ccccc1)C(=O)N[C@H](C(=O)N[C@@H](C)C(N)=O)C(C)C)C(C)C)C(C)C (X7-SEIQLMHNLGKHLNSMERVEWLRKKLQDVHNFVA-NH2) | 5.5 | 1 | 8.9 |  |  | 1 | 5 | 
7 | CC[C@H](C)[C@H](NC(=O)[C@H](CCC(=O)O)NC(=O)[C@H](CO)NC(=O)[C@@H](/C=C(\F)[C@H](C)N)Cc1ccccc1)C(=O)N[C@@H](CCC(N)=O)C(=O)N[C@@H](CC(C)C)C(=O)N[C@@H](CCSC)C(=O)N[C@@H](Cc1c[nH]cn1)C(=O)N[C@@H](CC(N)=O)C(=O)N[C@@H](CC(C)C)C(=O)NCC(=O)N[C@@H](CCCCN)C(=O)N[C@@H](Cc1c[nH]cn1)C(=O)N[C@@H](CC(C)C)C(=O)N[C@@H](CC(N)=O)C(=O)N[C@@H](CO)C(=O)N[C@@H](CCSC)C(=O)N[C@@H](CCC(=O)O)C(=O)N[C@@H](CCCN=C(N)N)C(=O)N[C@H](C(=O)N[C@@H](CCC(=O)O)C(=O)N[C@@H](Cc1c[nH]c2ccccc12)C(=O)N[C@@H](CC(C)C)C(=O)N[C@@H](CCCN=C(N)N)C(=O)N[C@@H](CCCCN)C(=O)N[C@@H](CCCCN)C(=O)N[C@@H](CC(C)C)C(=O)N[C@@H](CCC(N)=O)C(=O)N[C@@H](CC(=O)O)C(=O)N[C@H](C(=O)N[C@@H](Cc1c[nH]cn1)C(=O)N[C@@H](CC(N)=O)C(=O)N[C@@H](Cc1ccccc1)C(=O)N[C@H](C(=O)N[C@@H](C)C(N)=O)C(C)C)C(C)C)C(C)C (X8-SEIQLMHNLGKHLNSMERVEWLRKKLQDVHNFVA-NH2) | > 1000 | <0.1 | 8.6 |  |  | 0.08 | 26 | 
